Test results as given in patent publication US20070010671A1, “Novel quinazoline derivatives and methods of treatment related to the use thereof” (priority 2003, published 2007).

target: MCH receptor (Homo sapiens, UniProt Q99705); experiment: High throughput functional screening FLIPR/FDSS6000: inhibition of MCH-evoked intracellular Ca2+ changes; assay type: cell-based; settings: class by percent of control at 10^-7 M or IC50
In short: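 Constitutively active non-endogenous MCH-R cells; Fluo4-AM 4 μM, 2.5 mM probenecid, 1 hr, 37° C; cpd 3 min, 37° C; MCH 50 nM (antagonist mode); kinetic Ca2+ read Ex488/Em530, 290 s.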

Row | SMILES | class
1 | Cc1cccc([N+](=O)[O-])c1NC(=O)NC[C@H]1CC[C@@H](Nc2nc(N(C)C)c3ccccc3n2)CC1 [compound 509, N-[(cis-4-{[4-(dimethylamino)quinazolin-2-yl]amino}cyclohexyl)methyl]-N′-(2-methyl-6-nitrophenyl)urea] | 1 (Class 1: The value of percent of control at 10^−7 M was less than 40% or the value of IC50 was less than 50 nM.)
2 | Cc1cc(C)c(NC(=S)N[C@H]2CC[C@@H](Nc3nc(N(C)C)c4ccccc4n3)CC2)cc1C [compound 293, N-(cis-4-{[4-(dimethylamino)quinazolin-2-yl]amino}cyclohexyl)-N′-(2,4,5-trimethylphenyl)thiourea] | 1 (Class 1: The value of percent of control at 10^−7 M was less than 40% or the value of IC50 was less than 50 nM.)
3 | CN(C)c1nc(N[C@H]2CC[C@@H](CNC(=O)Nc3ccccc3Oc3ccccc3)CC2)nc2ccccc12 [compound 514, N-[(cis-4-{[4-(dimethylamino)quinazolin-2-yl]amino}cyclohexyl)methyl]-N′-(2-phenoxyphenyl)urea] | 2 (Class 2: The value of percent of control at 10^−7 M was from 40% to 60% or the value of IC50 was from 50 nM to 200 nM.)
4 | CC(C)c1ccccc1NC(=O)NC[C@H]1CC[C@@H](Nc2nc(N(C)C)c3ccccc3n2)CC1 [compound 502, N-[(cis-4-{[4-(dimethylamino)quinazolin-2-yl]amino}cyclohexyl)methyl]-N′-(2-isopropylphenyl)urea] | 1 (Class 1: The value of percent of control at 10^−7 M was less than 40% or the value of IC50 was less than 50 nM.)
5 | Cc1cccc(NC(=O)NC[C@H]2CC[C@@H](Nc3nc(N(C)C)c4ccccc4n3)CC2)c1 [compound 459, N-[(cis-4-{[4-(dimethylamino)quinazolin-2-yl]amino}cyclohexyl)methyl]-N′-(3-methylphenyl)urea] | 2 (Class 2: The value of percent of control at 10^−7 M was from 40% to 60% or the value of IC50 was from 50 nM to 200 nM.)
6 | Cc1onc(-c2ccccc2)c1NC(=O)N[C@H]1CC[C@@H](Nc2nc(N(C)C)c3ccccc3n2)CC1 [compound 355, N-(cis-4-{[4-(dimethylamino)quinazolin-2-yl]amino}cyclohexyl)-N′-(5-methyl-3-phenylisoxazol-4-yl)urea] | 1 (Class 1: The value of percent of control at 10^−7 M was less than 40% or the value of IC50 was less than 50 nM.)
7 | CN(C)c1nc(N[C@H]2CC[C@@H](NC(=S)Nc3cc(Br)ccc3Br)CC2)nc2ccccc12 [compound 295] | 3 (Class 3: The value of percent of control at 10^−7 M was more than 60% or the value of IC50 was more than 200 nM.)
8 | CN(C)c1nc(N[C@H]2CC[C@@H](NC(=S)Nc3ccc(Oc4ccccc4)nc3)CC2)nc2ccccc12 [compound 404] | 3 (Class 3: The value of percent of control at 10^−7 M was more than 60% or the value of IC50 was more than 200 nM.)
9 | CN(C)c1ccc(NC(=S)N[C@H]2CC[C@@H](Nc3nc(N(C)C)c4ccccc4n3)CC2)cc1 [compound 386] | 3 (Class 3: The value of percent of control at 10^−7 M was more than 60% or the value of IC50 was more than 200 nM.)
10 | CN(C)c1nc(N[C@H]2CC[C@@H](CNC(=O)Nc3ccc4c(c3)CCC4)CC2)nc2ccccc12 [compound 568] | 3 (Class 3: The value of percent of control at 10^−7 M was more than 60% or the value of IC50 was more than 200 nM.)
11 | COc1ccccc1NC(=S)NC[C@H]1CC[C@@H](Nc2nc(N(C)C)c3ccccc3n2)CC1 [compound 609] | 3 (Class 3: The value of percent of control at 10^−7 M was more than 60% or the value of IC50 was more than 200 nM.)
12 | Cc1ccc(C)c(NC(=S)N[C@H]2CC[C@@H](Nc3nc(N(C)C)c4ccccc4n3)CC2)c1 [compound 362, N-(cis-4-{[4-(dimethylamino)quinazolin-2-yl]amino}cyclohexyl)-N′-(2,5-dimethylphenyl)thiourea] | 2 (Class 2: The value of percent of control at 10^−7 M was from 40% to 60% or the value of IC50 was from 50 nM to 200 nM.)
13 | CN(C)c1nc(N[C@H]2CC[C@@H](CNC(=O)Nc3cc(F)cc4c3OCOC4)CC2)nc2ccccc12 [compound 769, N-[(cis-4-{[4-(dimethylamino)quinazolin-2-yl]amino}cyclohexyl)methyl]-N′-(6-fluoro-4H-1,3-benzodioxin-8-yl)urea] | 2 (Class 2: The value of percent of control at 10^−7 M was from 40% to 60% or the value of IC50 was from 50 nM to 200 nM.)
14 | CCOc1ccc(NC(=S)NC[C@H]2CC[C@@H](Nc3nc(N(C)C)c4ccccc4n3)CC2)cc1 [compound 596] | 3 (Class 3: The value of percent of control at 10^−7 M was more than 60% or the value of IC50 was more than 200 nM.)
15 | CN(C)c1nc(N[C@H]2CC[C@@H](CNC(=S)Nc3ccccc3Br)CC2)nc2ccccc12 [compound 625] | 3 (Class 3: The value of percent of control at 10^−7 M was more than 60% or the value of IC50 was more than 200 nM.)
16 | CN(C)c1nc(N[C@H]2CC[C@@H](NC(=O)NCCc3cccs3)CC2)nc2ccccc12 [compound 337, N-(cis-4-{[4-(dimethylamino)quinazolin-2-yl]amino}cyclohexyl)-N′-[2-(2-thienyl)ethyl]urea] | 2 (Class 2: The value of percent of control at 10^−7 M was from 40% to 60% or the value of IC50 was from 50 nM to 200 nM.)
17 | CN(C)c1nc(N[C@H]2CC[C@@H](CNC(=S)Nc3ccccc3)CC2)nc2ccccc12 [compound 615] | 3 (Class 3: The value of percent of control at 10^−7 M was more than 60% or the value of IC50 was more than 200 nM.)
18 | CN(C)c1nc(N[C@H]2CC[C@@H](CNC(=S)NCCCc3ccccc3)CC2)nc2ccccc12 [compound 689] | 3 (Class 3: The value of percent of control at 10^−7 M was more than 60% or the value of IC50 was more than 200 nM.)
19 | CN(C)c1nc(N[C@H]2CC[C@@H](NC(=S)Nc3ccccc3I)CC2)nc2ccccc12 [compound 219] | 2 (Class 2: The value of percent of control at 10^−7 M was from 40% to 60% or the value of IC50 was from 50 nM to 200 nM.)
20 | CCc1ccccc1NC(=S)N[C@H]1CC[C@@H](Nc2nc(N(C)C)c3ccccc3n2)CC1 [compound 216] | 1 (Class 1: The value of percent of control at 10^−7 M was less than 40% or the value of IC50 was less than 50 nM.)
21 | CN(C)c1nc(N[C@H]2CC[C@@H](CNC(=S)Nc3cc(C(F)(F)F)cc(C(F)(F)F)c3)CC2)nc2ccccc12 [compound 579] | 3 (Class 3: The value of percent of control at 10^−7 M was more than 60% or the value of IC50 was more than 200 nM.)

same assay, conditions: class by percent of control at 10^-7 M or by IC50; read-out: class

Row | IC50 [nM] | SMILES
22 | > 200 | CC1CCC(C(C)C)C(OC(=O)NCC2CCC(Nc3nc(N(C)C)c4ccccc4n3)CC2)C1 (stereo not drawn) [compound 880]
23 | 50 to 200 | CN(C)c1nc(N[C@H]2CC[C@@H](NC(=O)Nc3ccc(Br)cc3)CC2)nc2ccccc12 [compound 12, N-(4-bromophenyl)-N′-(cis-4-{[4-(dimethylamino)quinazolin-2-yl]amino}cyclohexyl)urea]
24 | > 200 | CN(C)c1nc(N[C@H]2CC[C@@H](NC(=O)NC(=O)c3ccccc3)CC2)nc2ccccc12 [compound 7]
25 | < 50 | CN(C)c1nc(N[C@H]2CC[C@@H](NC(=O)NC3C[C@H]3c3ccccc3)CC2)nc2ccccc12 (stereo partly drawn) [compound 51, N-(cis-4-{[4-(dimethylamino)quinazolin-2-yl]amino}cyclohexyl)-N′-[(2S)-2-phenylcyclopropyl]urea]
26 | > 200 | CN(C)c1nc(N[C@H]2CC[C@@H](CNC(=O)OCC(C)(C)C)CC2)nc2ccccc12 [compound 867]
27 | > 200 | CN(C)c1nc(N[C@H]2CC[C@@H](NC(=S)NC(C)(C)CC(C)(C)C)CC2)nc2ccccc12 [compound 190]
28 | 50 to 200 | CN(C)c1nc(N[C@H]2CC[C@@H](NC(=O)NC3CCCC3)CC2)nc2ccccc12 [compound 843, N-cyclophenyl-N′-(cis-4-{[4-(dimethylamino)quinazolin-2-yl]amino}cyclohexyl)urea]
29 | 50 to 200 | CN(C)c1nc(N[C@H]2CC[C@@H](NC(=O)Nc3ccc(F)c(Cl)c3)CC2)nc2ccccc12 [compound 130]

same assay, conditions: class by percent of control at 10^−7 M or by IC50; read-out: class

Row | IC50 [nM] | SMILES
30 | 50 to 200 | CN(C)c1nc(N[C@H]2CC[C@@H](CNC(=O)Nc3ccc(Cl)c(Cl)c3)CC2)nc2ccccc12 [Example 1026, N-(3,4-dichlorophenyl)-N′-[(cis-4-{[4-(dimethylamino)quinazolin-2-yl]amino}cyclohexyl)methyl]urea]
31 | 50 to 200 | CN(C)c1nc(N[C@H]2CC[C@@H](CNC(=O)Nc3cc(Cl)ccc3Cl)CC2)nc2ccccc12 [Example 1027, N-(2,5-dichlorophenyl)-N′-[(cis-4-{[4-(dimethylamino)quinazolin-2-yl]amino}cyclohexyl)methyl]urea]
32 | < 50 | CN(C)c1nc(N[C@H]2CC[C@@H](C(=O)NCc3cccc(F)c3)CC2)nc2ccccc12 [Example 1157, cis-4-{[4-(dimethylamino)quinazolin-2-yl]amino}-N-(3-fluorobenzyl)cyclohexanecarboxamide]
33 | > 200 | CN(C)c1nc(N[C@H]2CC[C@@H](NCc3ccc(F)c(F)c3)C2)nc2ccccc12 [Example 1049, N2-{(1S,3R)-3-[(3,4-difluorobenzyl)amino]cyclopentyl}-N4,N4-dimethylquinazoline-2,4-diamine]
34 | 50 to 200 | Cc1ccc(Cl)cc1CNC(=O)[C@H]1CC[C@@H](Nc2nc(N(C)C)c3ccccc3n2)CC1 [Example 1145, cis-N-(5-chloro-2-methylbenzyl)-4-{[4-(dimethylamino)quinazolin-2-yl]amino}cyclohexanecarboxamide]
35 | < 50 | CC(NC(=O)[C@H]1CC[C@@H](Nc2nc(N(C)C)c3ccccc3n2)CC1)c1ccc(Br)cc1 (relative stereo) [Example 1140, cis-N-[1-(4-bromophenyl)ethyl]-4-{[4-(dimethylamino)quinazolin-2-yl]amino}cyclohexanecarboxamide]
36 | < 50 | CN(C)c1nc(N[C@H]2CC[C@@H](NC(=O)CNc3ccc(F)cc3)CC2)nc2ccccc12 [Example 1091, N-(cis-4-{[4-(dimethylamino)quinazolin-2-yl]amino}cyclohexyl)-N2-(4-fluorophenyl)glycinamide]
